Laboratory results published in ChEMBL document CHEMBL1201862, “PubChem BioAssay data set” (2004).
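Briefly, cells in 96-well plates were exposed to five compound concentrations for 48 h, and endpoints were estimated by linear interpolation. GI50 is the concentration that inhibits growth by half.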 The source made the active and inactive calls. Rule as the data show it: active = GI50 up to about 1.1 µM and inactive = higher.

Experiments:
Assay in all cases: NCI tumour cell line growth inhibition, 48 h
U-251 = test system: U-251
A498 = test system: A498
786-0 = test system: 786-0
MDA-MB-435 = test system: MDA-MB-435
TK-10 = test system: TK-10
OVCAR-5 = test system: OVCAR-5
SF-539 = test system: SF-539
MOLT-4 = test system: MOLT-4
EKVX = test system: EKVX
NCI-H23 = test system: NCI-H23
MDA-N = test system: MDA-N
M14 = test system: M14
PC-3 = test system: PC-3
RXF 393 = test system: RXF 393
OVCAR-8 = test system: OVCAR-8
NCI-H226 = test system: NCI-H226
OVCAR-3 = test system: OVCAR-3
SR = test system: SR
UACC-62 = test system: UACC-62
SF-268 = test system: SF-268
HCT-116 = test system: HCT-116
Malme-3M = test system: Malme-3M
HOP-62 = test system: HOP-62
MDA-MB-231 = test system: MDA-MB-231
SK-MEL-2 = test system: SK-MEL-2
HT-29 = test system: HT-29
HOP-92 = test system: HOP-92
HL-60 = test system: HL-60
SN12C = test system: SN12C
HCT-15 = test system: HCT-15
NCI/ADR-RES = test system: NCI/ADR-RES
NCI-H522 = test system: NCI-H522
LOX IMVI = test system: LOX IMVI
IGROV-1 = test system: IGROV-1
KM12 = test system: KM12
A549 = test system: A549
OVCAR-4 = test system: OVCAR-4
CAKI-1 = test system: CAKI-1
SK-OV-3 = test system: SK-OV-3
SK-MEL-5 = test system: SK-MEL-5
SK-MEL-28 = test system: SK-MEL-28
Hs-578T = test system: Hs-578T
RPMI-8226 = test system: RPMI-8226
NCI-H460 = test system: NCI-H460
UACC-257 = test system: UACC-257
COLO 205 = test system: COLO 205
MCF7 = test system: MCF7
ACHN = test system: ACHN
BT-549 = test system: BT-549
K562 = test system: K562
SNB-19 = test system: SNB-19
DU-145 = test system: DU-145
T47D = test system: T47D
SF-295 = test system: SF-295
UO-31 = test system: UO-31
SW-620 = test system: SW-620

OCCCN=C1CCCCC1
GI50 (U-251): > 100 µM (inactive)
GI50 (A498): > 100 µM (inactive)
GI50 (786-0): > 100 µM (inactive)
GI50 (MDA-MB-435): > 100 µM (inactive)
GI50 (TK-10): > 100 µM (inactive)
GI50 (OVCAR-5): > 100 µM (inactive)
GI50 (SF-539): > 100 µM (inactive)
GI50 (MOLT-4): > 100 µM (inactive)
GI50 (EKVX): > 100 µM (inactive)
GI50 (NCI-H23): > 100 µM (inactive)
GI50 (MDA-N): > 100 µM (inactive)
GI50 (M14): > 100 µM (inactive)
GI50 (PC-3): > 100 µM (inactive)
GI50 (RXF 393): > 100 µM (inactive)
GI50 (OVCAR-8): > 100 µM (inactive)
GI50 (NCI-H226): > 100 µM (inactive)
GI50 (OVCAR-3): > 100 µM (inactive)
GI50 (SR): > 100 µM (inactive)
GI50 (UACC-62): > 100 µM (inactive)
GI50 (SF-268): > 100 µM (inactive)
GI50 (HCT-116): > 100 µM (inactive)
GI50 (Malme-3M): > 100 µM (inactive)
GI50 (HOP-62): > 100 µM (inactive)
GI50 (MDA-MB-231): > 100 µM (inactive)
GI50 (SK-MEL-2): 56.8 µM (inactive)
GI50 (HT-29): > 100 µM (inactive)
GI50 (HOP-92): > 100 µM (inactive)
GI50 (HL-60): > 100 µM (inactive)
GI50 (SN12C): > 100 µM (inactive)
GI50 (HCT-15): > 100 µM
GI50 (NCI/ADR-RES): > 100 µM (inactive)
GI50 (NCI-H522): 77.4 µM (inactive)
GI50 (LOX IMVI): > 100 µM (inactive)
GI50 (IGROV-1): > 100 µM (inactive)
GI50 (KM12): > 100 µM (inactive)
GI50 (A549): > 100 µM (inactive)
GI50 (OVCAR-4): > 100 µM (inactive)
GI50 (CAKI-1): > 100 µM (inactive)
GI50 (SK-OV-3): > 100 µM (inactive)
GI50 (SK-MEL-5): > 100 µM (inactive)
GI50 (SK-MEL-28): > 100 µM (inactive)
GI50 (Hs-578T): 69.8 µM (inactive)
GI50 (RPMI-8226): > 100 µM (inactive)
GI50 (NCI-H460): > 100 µM (inactive)
GI50 (UACC-257): > 100 µM (inactive)
GI50 (COLO 205): > 100 µM (inactive)
GI50 (MCF7): > 100 µM (inactive)
GI50 (ACHN): > 100 µM (inactive)
GI50 (BT-549): > 100 µM (inactive)
GI50 (K562): > 100 µM (inactive)
GI50 (SNB-19): > 100 µM (inactive)
GI50 (DU-145): > 100 µM (inactive)
GI50 (T47D): > 100 µM (inactive)
GI50 (SF-295): > 100 µM (inactive)
GI50 (UO-31): > 100 µM (inactive)
GI50 (SW-620): > 100 µM (inactive)
